From patent US12037333B2, “Pyridopyrazine and pyridotriazine inhibitors of influenza virus replication” (priority 2018, dated 2024)

System: Influenza type A (strain A/PR/8/34, ATCC VR-95)
Assay: Influenza antiviral assay: inhibition of virus-induced cytopathic effects (CPE) in MDCK cells, XTT dye reduction
Format: cell-based
Settings: strain A/PR/8/34, MDCK cells, CPE inhibition at 4 days
[1] = Influenza A virus, H1N1 / PR/8, MDCK, 96 h

| SMILES | EC50 [1] [nM] | EC50 (Influenza A (H1N1)) [nM] |
| --- | --- | --- |
| COCCN1CN(C23c4ccccc4CC2Cc2ccccc23)n2ccc(=O)c(O)c2C1=O (stereo not shown) [Compound A110] | 125 to 250 | – |
| O=C1c2c(O)c(=O)ccn2N(C23c4ccccc4CC2Cc2c(Cl)cccc23)CN1CCF (stereo not shown) [Compound A111] | 125 to 250 | – |
| O=C1c2c(O)c(=O)ccn2N(C23c4ccccc4CC2Cc2c(Cl)cccc23)CN1CC1CCC1 (stereo not shown) [Compound A112] | 375 to 500 | – |
| COCCN1C(=O)c2c(O)c(=O)ccn2N(C23c4ccccc4CC2Cc2c3ccc(F)c2F)C1C (stereo not shown) [Compound A113] | 125 to 250 | – |
| O=C1c2c(O)c(=O)ccn2N(C23c4ccccc4CC2Cc2c(Cl)cccc23)CN1CCF (stereo not shown) [Compound A114] | – | 125 to 250 |
| CC1N(CCF)C(=O)c2c(O)c(=O)ccn2N1C12c3ccccc3CC1Cc1c(Cl)cccc12 (stereo not shown) [Compound A115] | 375 to 500 | – |
| CCN1CN(C23c4ccccc4CC2(C)Cc2cc(F)ccc23)n2ccc(=O)c(O)c2C1=O (stereo not shown) [Compound A116] | < 125 | – |
| CC(C)CN1C(=O)c2c(O)c(=O)ccn2N(C23c4ccccc4CC2Cc2c(F)cccc23)C1C (stereo not shown) [Compound A117] | > 500 | – |
| CC(C)CN1C(=O)c2c(O)c(=O)ccn2N(C23c4ccccc4CC2Cc2c(Cl)cccc23)C1C (stereo not shown) [Compound A118] | > 500 | – |
| CC1N(CCF)C(=O)c2c(O)c(=O)ccn2N1C12c3ccccc3CC1Cc1c(F)cccc12 (stereo not shown) [Compound A121] | 125 to 250 | – |
| COCCN1C(=O)c2c(O)c(=O)ccn2N(C23c4ccccc4CC2Cc2c(F)cccc23)C1C (stereo not shown) [Compound A124] | 375 to 500 | – |
| COCCN1C(=O)c2c(O)c(=O)ccn2N(C23c4ccccc4CC2Cc2c(Cl)cccc23)C1C (stereo not shown) [Compound A125] | 250 to 375 | – |
| CN1CN(C23c4ccccc4CC2(C)Cc2cc(F)ccc23)n2ccc(=O)c(O)c2C1=O (stereo not shown) [Compound A126] | 125 to 250 | – |
| CC(C)CN1C(=O)c2c(O)c(=O)ccn2N(C23c4ccccc4CC2Cc2c3ccc(F)c2F)C1C (stereo not shown) [Compound A127] | > 500 | – |
| CC1N(CC2CC2)C(=O)c2c(O)c(=O)ccn2N1C12c3ccccc3CC1Cc1c2ccc(F)c1F (stereo not shown) [Compound A128] | 250 to 375 | – |
| CC1N(CC2CC2)C(=O)c2c(O)c(=O)ccn2N1C12c3ccccc3CC1Cc1c(F)cccc12 (stereo not shown) [Compound A129] | 250 to 375 | – |
| O=C1c2c(O)c(=O)ccn2N(C23c4cccc(F)c4CC2Cc2c(F)cccc23)CN1CC1CCCCO1 (stereo not shown) [Compound A130] | > 500 | – |
| O=C1c2c(O)c(=O)ccn2N(C23c4ccccc4CC2Cc2c3ccc(F)c2F)CN1CC1CCCCO1 (stereo not shown) [Compound A131] | 375 to 500 | – |
| CCCN1C(=O)c2c(O)c(=O)ccn2N(C23c4ccccc4CC2Cc2c(Cl)cccc23)C1C (stereo not shown) [Compound A132] | 250 to 375 | – |
| O=C1c2c(O)c(=O)ccn2N(C23c4ccccc4CC2Cc2c(F)cccc23)CN1CC1CCCCO1 (stereo not shown) [Compound A133] | 125 to 250 | – |
| CC1N(CC(F)F)C(=O)c2c(O)c(=O)ccn2N1C12c3ccccc3CC1Cc1c2ccc(F)c1F (stereo not shown) [Compound A136] | – | 375 to 500 |
| CC1N(CC(F)F)C(=O)c2c(O)c(=O)ccn2N1C12c3ccccc3CC1Cc1c2ccc(F)c1F (stereo not shown) [Compound A137] | – | 125 to 250 |
| CCN1C(=O)c2c(O)c(=O)ccn2N(C23c4ccccc4CC2Cc2c(F)cccc23)C1C (stereo not shown) [Compound A138] | 125 to 250 | – |

| SMILES | EC50 [1] [nM] | EC50 (Influenza A (H1N1)) [nM] |
| --- | --- | --- |
| CC1N(CC(F)F)C(=O)c2c(O)c(=O)ccn2N1C12c3ccccc3CC1Cc1c(F)cccc12 (stereo not shown) [Compound A139] | 125 to 250 | – |
| CC1N(CC2CC2)C(=O)c2c(O)c(=O)ccn2N1C12c3ccccc3CC1Cc1c(Cl)cccc12 (stereo not shown) [Compound A140] | 250 to 375 | – |
| CC1N(C2CCC2)C(=O)c2c(O)c(=O)ccn2N1C12c3ccccc3CC1Cc1c(F)cccc12 (stereo not shown) [Compound A141] | 375 to 500 | – |
| Cc1cc(CN2CN(C34c5ccccc5CC3Cc3ccccc34)n3ccc(=O)c(O)c3C2=O)no1 (stereo not shown) [Compound A144] | < 125 | – |
| CN1CN(C23c4ccccc4CC2Cc2cccc(F)c23)n2ccc(=O)c(O)c2C1=O (stereo not shown) [Compound A145] | < 125 | – |
| CN1CN(C23c4ccccc4CC2Cc2c3ccc(Cl)c2Cl)n2ccc(=O)c(O)c2C1=O (stereo not shown) [Compound A146] | < 125 | – |
| CCN1CN(C23c4ccccc4CC2(C)Cc2ccccc23)n2ccc(=O)c(O)c2C1=O (stereo not shown) [Compound A147] | < 125 | – |
| CCCN1CN(C23c4ccccc4CC2Cc2c3ccc(F)c2F)n2ccc(=O)c(O)c2C1=O (stereo not shown) [Compound A148] | < 125 | – |
| CC(C)CN1CN(C23c4ccccc4CC2Cc2c3ccc(F)c2F)n2ccc(=O)c(O)c2C1=O (stereo not shown) [Compound A149] | < 125 | – |
| CN1CN(C23c4ccccc4CC2(C)Cc2ccccc23)n2ccc(=O)c(O)c2C1=O (stereo not shown) [Compound A150] | < 125 | – |
| CCN1CN(C23c4cccc(F)c4CC2Cc2c(Cl)cccc23)n2ccc(=O)c(O)c2C1=O (stereo not shown) [Compound A151] | < 125 | – |
| CCN1CN(C23c4ccccc4CC2(OC)Cc2ccccc23)n2ccc(=O)c(O)c2C1=O (stereo not shown) [Compound A152] | < 125 | – |
| CCCN1CN(C23c4cccc(F)c4CC2Cc2c(F)cccc23)n2ccc(=O)c(O)c2C1=O (stereo not shown) [Compound A153] | < 125 | – |
| CC(C)CN1CN(C23c4cccc(F)c4CC2Cc2c(F)cccc23)n2ccc(=O)c(O)c2C1=O (stereo not shown) [Compound A156] | 250 to 375 | – |
| CCN1CN(C23c4ccccc4CC2(CC)Cc2ccccc23)n2ccc(=O)c(O)c2C1=O (stereo not shown) [Compound A157] | 125 to 250 | – |
| CC1N(C)C(=O)c2c(O)c(=O)ccn2N1C12c3ccccc3CC1Cc1ccccc12 (stereo not shown) [Compound A158] | 125 to 250 | – |
| CN1CN(C23c4ccccc4CC2Cc2c3ccc(Cl)c2F)n2ccc(=O)c(O)c2C1=O (stereo not shown) [Compound A160] | < 125 | – |
| CCN1CN(C23c4ccccc4CC2Cc2c3ccc(Cl)c2Cl)n2ccc(=O)c(O)c2C1=O (stereo not shown) [Compound A161] | < 125 | – |
| CCC12Cc3ccccc3C1(N1CN(C)C(=O)c3c(O)c(=O)ccn31)c1ccccc1C2 (stereo not shown) [Compound A162] | < 125 | – |
| CCN1CN(C23c4ccccc4CC2(C)Cc2c3ccc(F)c2F)n2ccc(=O)c(O)c2C1=O (stereo not shown) [Compound A164] | < 125 | – |
| CN1CN(C23c4ccccc4CC2(C)Cc2c3ccc(F)c2F)n2ccc(=O)c(O)c2C1=O (stereo not shown) [Compound A165] | < 125 | – |
| CCC1N(C)C(=O)c2c(O)c(=O)ccn2N1C12c3ccccc3CC1Cc1ccccc12 (stereo not shown) [Compound A166] | < 125 | – |
| CC(C)N1CN(C23c4ccccc4CC2(C)Cc2c3ccc(F)c2F)n2ccc(=O)c(O)c2C1=O (stereo not shown) [Compound A167] | < 125 | – |
